In experiment [1] the target is T1, Kit D816V in HMC1.2 cells (Homo sapiens, UniProt P10721, D816V/V560G).
T1 construct: endogenous in cells; host or cells: HMC1.2
Briefly: HMC1.2 autophosphorylation assay (Kit autophosphorylation at tyrosine 719, AlphaLISA). The class given is cell-based. To be noted: HMC1.2 mast cell leukemia cells (Kit V560G and D816V), phospho-Y719 c-Kit, 90 minutes; read-out: Cellular Activity IC50. On the procedure: 10,000 HMC1.2 cells were incubated in 22 ul culture media (phenol-red free IMDM, no serum) in each well of a 384-well plate and serum starved overnight in a tissue culture incubator (5% CO2, 37° C.). A 10-point dose concentration series of compound (25 uM-95.4 pM) were then added to the cells in a volume of 3.1 ul to each well (0.25% DMSO final concentration). After 90 minutes, 6 ul of 5× AlphaLISA Lysis Buffer (Perkin Elmer) supplemented with a protease and phosphatase inhibitor cocktail (Cell Signaling Technologies) was added to each well and shaken at 450 rpm for 15 minutes at 4° C. 10 ul of phospho-Y719 c-Kit and total c-Kit antibodies (15 nM final concentration, Cell Signaling Technologies) and 50 ug/ml AlphaLISA rabbit acceptor beads (Perkin Elmer) were added to each well and shaken at 300 rpm at room temperature for 2 hours. 10 ul of 100 ug/ml streptavidin donor beads (Perkin Elmer) were added to each well, blocked from light with aluminum adhesive and shaken at 300 rpm at room temperature for 2 hours. Fluorescence signal was obtained on Envision (Perkin Elmer) by AlphaScreen 384 well HTS protocol. Data was normalized to 0% and 100% inhibition controls and the IC50 was calculated using Four Parameter Logistic IC50 curve fitting.
This cell line contains Kit mutated at positions V560G and D816V resulting in constitutive activation of the kinase. The following compounds were tested in an assay to measure direct inhibition of Kit D816V kinase activity by assaying Kit autophosphorylation at tyrosine 719 on the Kit protein.

A further experiment addresses T2, D816V Kit (Homo sapiens, UniProt P10721, D816V).
T2 construct: purchased Carna Bioscience 08-156
Briefly: Kit D816V assay at Km (Caliper electrophoretic mobility shift). Conditions: D816V Kit 0.5 nM, 15 uM ATP (Km), 1 uM Srctide, 25 C, 90 minutes; read-out: Biochemical Activity D816V IC50. Here is the method: In order to assess the activity of chemical compounds against the relevant kinase of interest, the Caliper LifeSciences electrophoretic mobility shift technology platform is used. Fluorescently labeled substrate peptide is incubated in the presence of kinase and ATP so that a […] proportion of the peptide is phosphorylated. At the end of the reaction, the mix of phosphorylated (product) and non-phosphorylated (substrate) peptides are passed through the microfluidic system of the Caliper EZ Reader 2, under an applied potential difference. The presence of the phosphate group on the product peptide provides a difference in mass and charge between those of the substrate peptide, resulting in a separation of the substrate and product pools in the sample. As the pools pass a LEDS within the instrument, these pools are detected and resolved as separate peaks. The ratio between these peaks therefore reflects the activity of the chemical matter at that concentration in that well, under those conditions.
Kit D816V assay at Km: In each well of a 384-well plate, 0.04 ng/ul (0.5 nM) of D816V Kit (Carna Bioscience 08-156) was incubated in a total of 12.5 ul of buffer (100 mM HEPES pH 7.5, 0.015% Brij 35, 10 mM MgCl2, 1 mM DTT) with 1 uM Srctide (5-FAM-GEEPLYWSFPAKKK-NH2) and 15 uM ATP at 25 C for 90 minutes in the presence or absence of a dosed concentration series of compound (1% DMSO final concentration). The reaction was stopped by the addition of 70 ul of Stop buffer (100 mM HEPES pH 7.5, 0.015% Brij 35, 35 mM EDTA and 0.2% of Coating Reagent 3 (Caliper Lifesciences)). The plate was then read on a Caliper EZReader 2 (protocol settings:—1.9 psi, upstream voltage—700, downstream voltage—3000, post sample sip 35s). Data was normalized to 0% and 100% inhibition controls and the IC50 or EC50 calculated using a 4-parameter fit using GraphPad Prism.

T2 sequence (P10721 26-976 D816V): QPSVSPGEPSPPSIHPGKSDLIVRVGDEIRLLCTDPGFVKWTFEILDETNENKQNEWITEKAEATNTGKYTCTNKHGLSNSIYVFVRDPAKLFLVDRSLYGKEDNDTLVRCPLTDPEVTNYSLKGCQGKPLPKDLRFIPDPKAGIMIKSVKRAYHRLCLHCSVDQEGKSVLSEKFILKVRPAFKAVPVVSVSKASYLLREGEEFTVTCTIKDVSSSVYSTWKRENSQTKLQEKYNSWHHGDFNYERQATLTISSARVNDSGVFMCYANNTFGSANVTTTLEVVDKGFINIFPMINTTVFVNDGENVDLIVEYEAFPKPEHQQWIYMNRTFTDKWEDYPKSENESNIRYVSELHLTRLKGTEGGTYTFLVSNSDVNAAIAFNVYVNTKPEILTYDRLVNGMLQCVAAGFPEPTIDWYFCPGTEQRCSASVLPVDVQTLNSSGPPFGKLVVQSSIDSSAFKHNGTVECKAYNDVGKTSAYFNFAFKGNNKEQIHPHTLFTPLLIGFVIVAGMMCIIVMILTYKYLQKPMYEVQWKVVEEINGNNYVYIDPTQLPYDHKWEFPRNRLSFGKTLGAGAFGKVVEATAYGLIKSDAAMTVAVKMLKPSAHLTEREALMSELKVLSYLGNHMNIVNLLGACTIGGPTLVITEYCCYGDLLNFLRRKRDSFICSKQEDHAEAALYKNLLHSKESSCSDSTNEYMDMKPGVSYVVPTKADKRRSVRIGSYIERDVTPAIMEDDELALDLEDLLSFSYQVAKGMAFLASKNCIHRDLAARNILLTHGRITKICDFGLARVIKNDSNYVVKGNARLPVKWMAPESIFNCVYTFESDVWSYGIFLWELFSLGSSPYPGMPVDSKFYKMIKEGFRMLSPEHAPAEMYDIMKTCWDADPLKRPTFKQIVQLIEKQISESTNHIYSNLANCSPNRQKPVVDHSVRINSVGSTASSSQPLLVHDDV
T1 sequence (P10721 26-976 V560G/D816V): as the sequence (P10721 26-976 D816V) above, with V535G counted along it

Usually IC50 stands for the midpoint of a concentration-inhibition curve. Regarding `Cn1cc(-c2cc3c(-c4ccc(NC(=O)[C@@](C)(O)c5ccc(Cl)cc5)cc4)ncnn3c2)cn1` [Compound 49, 2-(4-chlorophenyl)-2-hydroxy-N-(4-(6-(1-methyl-1H-pyrazol-4-yl)pyrrolo[1,2-f][1,2,4]triazin-4-yl)phenyl)propanamide], the figures for the IC50 (in experiment [1]; on D816V Kit) were below 10 nM and 1.01 to 10 nM, respectively.
On to `COC(C(=O)Nc1ccc(-c2ncnn3cc(-c4cnn(C)c4)cc23)cc1)c1ccccc1` (stereo not shown) [Compound 15], for which the IC50 at D816V Kit was 1.01 to 10 nM.
For the compound `Cn1cc(-c2cc3c(-c4ccc(NS(=O)(=O)c5ccc(Cl)cc5)cc4F)ncnn3c2)cn1` [Compound 56], the half-maximal inhibitory concentration (IC50) in experiment [1] lay within 100 to 1000 nM; on D816V Kit, 1.01 to 10 nM.
With `Cn1cc(-c2cc3c(-c4ccc(NC(=O)C(O)c5ccccc5)cc4)ncnn3c2)cn1` (stereo not shown) [Compound 10], at D816V Kit, the half-maximal inhibitory concentration (IC50) is below 1 nM.
With `CCC(C(=O)Nc1ccc(-c2ncnn3cc(-c4cnn(C)c4)cc23)cc1)c1ccc(Cl)cc1` (stereo not shown) [Compound 43], the half-maximal inhibitory concentration (IC50) in experiment [1] lay within 10 to 100 nM; at D816V Kit, 1.01 to 10 nM.
The corresponding values for `Cn1cc(CC(=O)Nc2ccc(-c3ncnn4cc(-c5cnn(C)c5)cc34)cc2)cn1` [Compound 6] are 1000 to 10000 nM and 10 to 100 nM.
As to `Cn1cc(-c2cc3c(-c4ccc(NC(=O)c5ccc(Cl)cc5)cc4)ncnn3c2)cn1` [Compound 12], the IC50 at D816V Kit is above 100 nM.
As to `Cn1cc(-c2cc3c(-c4ccc(NC(=O)[C@](C)(N)c5ccc(Cl)cc5)cc4)ncnn3c2)cn1` [Compound 46, 2-amino-2-(4-chlorophenyl)-N-(4-(6-(1-methyl-1H-pyrazol-4-yl)pyrrolo[1,2-f][1,2,4]triazin-4-yl)phenyl)propanamide], the 50% inhibitory concentration (IC50) in experiment [1] was below 10 nM; at D816V Kit, 1.01 to 10 nM.
The corresponding values for `O=S(=O)(Nc1ccc(-c2ncnn3cc(-c4ccc(F)cc4)cc23)cc1)c1ccc(Cl)cc1` [Compound 55] are 1000 to 10000 nM and above 100 nM.
For `Cn1cc(-c2cc3c(-c4ccc(NC(=O)Cc5ccc(Cl)cc5Cl)cc4)ncnn3c2)cn1` [Compound 54], in that order: below 10 nM and 1.01 to 10 nM.
The corresponding values for `Cn1cc(-c2cc3c(-c4ccc(NC(=O)[C@](C)(O)c5ccc(Cl)cc5)cc4)ncnn3c2)cn1` [Compound 50, 2-(4-chlorophenyl)-2-hydroxy-N-(4-(6-(1-methyl-1H-pyrazol-4-yl)pyrrolo[1,2-f][1,2,4]triazin-4-yl)phenyl)propanamide] are 100 to 1000 nM and 10 to 100 nM.
Take `Cn1cc(-c2cc3c(-c4ccc(NS(=O)(=O)c5ccc(Cl)cc5)c(F)c4)ncnn3c2)cn1` [Compound 57]: the IC50 in experiment [1] fell in the range of 1000 to 10000 nM; on D816V Kit, 10 to 100 nM.
For `O=C(Cc1ccc(Cl)cc1)Nc1ccc(-c2ncnn3cc(-c4ccc(F)cc4)cc23)cc1` [Compound 27], in that order: 1000 to 10000 nM and 10 to 100 nM.
For `Cc1ccc(CC(=O)Nc2ccc(-c3ncnn4cc(-c5cnn(C)c5)cc34)cc2)cc1` [Compound 8], in that order: 10 to 100 nM and 1.01 to 10 nM.
Regarding `Cn1cc(-c2cc3c(-c4ccc(NC(=O)c5ccc(C#N)cc5)cc4)ncnn3c2)cn1` [Compound 7], the IC50 on D816V Kit was in the range of 10 to 100 nM.
Turning to `COC(C(=O)Nc1ccc(-c2ncnn3cc(-c4cnn(C)c4)cc23)cc1)c1ccc(Cl)cc1` (stereo not shown) [Compound 52], the results for the IC50 (in experiment [1]; on D816V Kit) were 10 to 100 nM and 1.01 to 10 nM, respectively.
For `Cc1ccc(S(=O)(=O)Nc2ccc(-c3ncnn4cc(-c5cnn(C)c5)cc34)cc2)cc1` [Compound 22], in that order: 10 to 100 nM and 1.01 to 10 nM.
Take `CS(=O)(=O)Nc1ccc(-c2ncnn3cc(-c4ccc(S(C)(=O)=O)cc4)cc23)cc1` [Compound 16]: the half-maximal inhibitory concentration (IC50) in experiment [1] fell in the range of 100 to 1000 nM; at D816V Kit it was 1.01 to 10 nM.
The corresponding values for `Cn1cc(-c2cc3c(-c4ccc(NC(=O)Cc5ccc(F)cc5)cc4)ncnn3c2)cn1` [Compound 11] are 10 to 100 nM and 1.01 to 10 nM.
The corresponding values for `Cn1cc(-c2cc3c(-c4ccc(NC(=O)C(N)c5ccc(Cl)cc5)cc4)ncnn3c2)cn1` (stereo not shown) [Compound 31, 2-amino-2-(4-chlorophenyl)-N-(4-(6-(1-methyl-1H-pyrazol-4-yl)pyrrolo[1,2-f][1,2,4]triazin-4-yl)phenyl)acetamide] are below 10 nM and 1.01 to 10 nM.
For `CC(C)C(C(=O)Nc1ccc(-c2ncnn3cc(-c4cnn(C)c4)cc23)cc1)c1ccc(Cl)cc1` (stereo not shown) [Compound 58], in that order: 10 to 100 nM and 10 to 100 nM.
As to `Cn1cc(-c2cc3c(-c4ccc(NC(=O)C5(c6ccc(Cl)cc6)CC5)cc4)ncnn3c2)cn1` [Compound 39], the IC50 in experiment [1] was 100 to 1000 nM; at D816V Kit, 10 to 100 nM.
For `O=C(c1ccc(-c2cc3c(-c4ccc(NS(=O)(=O)c5ccc(Cl)cc5)cc4)ncnn3c2)cc1)N1CCC1` [Compound 66], in that order: 1000 to 10000 nM and above 100 nM.
For `CN(C)C(=O)c1ccc(-c2cc3c(-c4ccc(NS(C)(=O)=O)cc4)ncnn3c2)cc1` [Compound 14], in that order: 100 to 1000 nM and 1.01 to 10 nM.
The corresponding values for `Cn1cc(-c2cc3c(-c4ccc(NC(=O)C(C)(O)c5ccc(Cl)cc5)cc4)ncnn3c2)cn1` (stereo not shown) [Compound 51] are 10 to 100 nM and 1.01 to 10 nM.
As for `Cn1cc(-c2cc3c(-c4ccc(NS(=O)(=O)Cc5ccc(C#N)cc5)cc4)ncnn3c2)cn1` [Compound 40], the concentration for half-maximal inhibition (IC50) was 10 to 100 nM in experiment [1] and below 1 nM at D816V Kit.
`C[C@@H](C(=O)Nc1ccc(-c2ncnn3cc(-c4cnn(C)c4)cc23)cc1)c1ccc(Cl)cc1` [Compound 28]: the half-inhibitory concentration (IC50) is below 10 nM in experiment [1] and 1.01 to 10 nM on D816V Kit.
For `Cn1cc(-c2cc3c(-c4ccc(NC(=O)Cc5ccccn5)cc4)ncnn3c2)cn1` [Compound 5], in that order: 1000 to 10000 nM and 10 to 100 nM.
Turning to `Cn1cc(-c2cc3c(-c4ccc(NS(=O)(=O)CC5COCCO5)cc4)ncnn3c2)cn1` (stereo not shown) [Compound 25], the IC50 lay within 1000 to 10000 nM in experiment [1] and 10 to 100 nM at D816V Kit.
For `Cn1cc(-c2cc3c(-c4ccc(NC(=O)Cc5ccc(Cl)nc5)cc4)ncnn3c2)cn1` [Compound 20], in that order: 10 to 100 nM and 1.01 to 10 nM.
Take `Cn1cc(-c2cc3c(-c4ccc(NC(=O)Nc5ccc(Cl)cc5)cc4)ncnn3c2)cn1` [Compound 21]: the IC50 on D816V Kit was above 100 nM.
Regarding `Cn1cc(-c2cc3c(-c4ccc(NC(=O)C(O)c5ccc(Cl)cc5)cc4)ncnn3c2)cn1` (stereo not shown) [Compound 33, 2-(4-chlorophenyl)-2-hydroxy-N-(4-(6-(1-methyl-1H-pyrazol-4-yl)pyrrolo[1,2-f][1,2,4]triazin-4-yl)phenyl)acetamide], the values for the IC50 (in experiment [1]; at D816V Kit) were below 10 nM and 1.01 to 10 nM, respectively.
The corresponding values for `Cn1cc(-c2cc3c(-c4ccc(NC(=O)C(C)(C)c5ccc(Cl)cc5)cc4)ncnn3c2)cn1` [Compound 41, 2-(4-chlorophenyl)-2-methyl-N-(4-(6-(1-methyl-1H-pyrazol-4-yl)pyrrolo[1,2-f][1,2,4]triazin-4-yl)phenyl)propanamide] are 10 to 100 nM and below 1 nM.
In the case of `Cn1cc(-c2cc3c(-c4ccc(NS(=O)(=O)c5ccc(C#N)cc5)cc4)ncnn3c2)cn1` [Compound 26], the 50% inhibitory concentration (IC50) in experiment [1] was in the range of 1000 to 10000 nM; at D816V Kit, 1.01 to 10 nM.
In the case of `CC[C@@H](C(=O)Nc1ccc(-c2ncnn3cc(-c4cnn(C)c4)cc23)cc1)c1ccc(Cl)cc1` [Compound 42], the IC50 was below 10 nM in experiment [1] and 1.01 to 10 nM on D816V Kit.
The corresponding values for `Cn1cc(-c2cc3c(-c4ccc(NC(=O)Cc5ccc(Cl)cc5)cc4)ncnn3c2)cn1` [Compound 17] are 10 to 100 nM and 1.01 to 10 nM.

(Values after patent US10000496B2, “Compositions useful for treating disorders related to kit and PDGFR” (BLUEPRINT MEDICINES CORPORATION, priority 2015, dated 2018).)
